Several values for one entry are separate records, joined by “and”; a condition that tells them apart may be missing. Identical values can stand only once.
Experiments:
[1] = tested on: CMA network components in NIH3T3 cells; assay: qPCR of CMA network components and CMA activation score; assay type: cell-based, mouse; set-up: LAMP2A mRNA level / HSP90AB1 mRNA level / HSP40 mRNA level / RAC1 mRNA level / AKT1 mRNA level / AKT2 mRNA level / CTSA mRNA level / NFATC1 mRNA level / HSC70 mRNA level / NCOR1 mRNA level / NFE2L2 mRNA level / RAB11A mRNA level / RARa mRNA level / HSP90AA1 mRNA level / EEF1A1 mRNA level / RICTOR mRNA level: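 fold of untreated cells after 20 µM for 24 h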; key to CMA activation score: weighted (LAMP-2A ×2), directed (±1) average of CMA network expression;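 for AKT1 mRNA level: fold of untreated cells after 20 µM for 24 h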;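 for AKT2 mRNA level: fold of untreated cells after 20 µM for 24 h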;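 for CTSA mRNA level: fold of untreated cells after 20 µM for 24 h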;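 for HSC70 mRNA level: fold of untreated cells after 20 µM for 24 h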;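 for HSP40 mRNA level: fold of untreated cells after 20 µM for 24 h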;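 for HSP90AA1 mRNA level: fold of untreated cells after 20 µM for 24 h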;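 for HSP90AB1 mRNA level: fold of untreated cells after 20 µM for 24 h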;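 for LAMP2A mRNA level: fold of untreated cells after 20 µM for 24 h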;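 for NCOR1 mRNA level: fold of untreated cells after 20 µM for 24 h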;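 for NFATC1 mRNA level: fold of untreated cells after 20 µM for 24 h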;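 for NFE2L2 mRNA level: fold of untreated cells after 20 µM for 24 h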;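 for PHLPP1 mRNA level: fold of untreated cells after 20 µM for 24 h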;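 for RAB11A mRNA level: fold of untreated cells after 20 µM for 24 h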;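 for RAC1 mRNA level: fold of untreated cells after 20 µM for 24 h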;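 for RARa mRNA level: fold of untreated cells after 20 µM for 24 h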
Description: RNA was extracted from individual retinas or tissue sections (brain, liver). Total RNA from retinas was extracted using TRIzol Reagent (Invitrogen, # 15596-018), and reverse transcription was performed using the High-Capacity cDNA Reverse Transcription Kit (Applied Biosystems, # 4374966) according to the manufacturer’s instructions. Quantitative real-time PCR was performed in a Light Cycler 480 Instrument (Roche) with Taqman LightCycler 480 probes Master Mix (Roche, #4887301001) using Taqman assays (Life Technologies). For cells in culture, RNA was extracted using RNeasy Plus Mini Kit (Qiagen, #74034), and reverse transcription was performed using Superscript III (Invitrogen, #18080051). Quantitative RT-PCR analysis were performed using Power SYBR Green PCR Master Mix (Applied Biosystems, #4368708) on a StepOne Plus Real-Time PCR System (Applied Biosystems). Mm01184405_m1 probe (Thermofisher) was used for rhodopsin and the sequence of all the other probes used for qPCR is included in Supplementary Table 2.
CMA index[14] was calculated using data set from[23]–[25]. Briefly, each element of the CMA network[13] has attributed a weight. As LAMP-2A is the rate-limiting component of CMA, it was given a weight of 2. Every other element received a weight of 1. Then, every element was attributed direction score that is +1 or −1 based on the known effect of a given element on CMA activity. The score was then calculated as the weighted/ directed average of expression counts of every element of the CMA network.

[2] = Pharmacokinetic analysis, plasma and brain;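 for Fig. 3a level, single animals 1-3: plasma concentration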;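 for Fig. 3b level, single animals 1-3: brain concentration in ng/g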; assay type: in vivo, ICR (CD-1) male mice; set-up: Fig. 3a level, single animals 1-3 / Fig. 3b level, single animals 1-3: unit not given here
NIH3T3 = assay: Intracellular proteolysis of long half-life proteins; assay type: cell-based, mouse
Description: Confluent cells were labelled with [^3H]leucine (2μCi/ml) (NEN-PerkinElmer Life Sciences) for 48 h and then extensively washed and maintained in medium with an excess of unlabeled leucine. Proteolysis was calculated from aliquots of the medium taken at different times and precipitated in trichloroacetic acid, as the amount of acid-precipitable radioactivity transformed to acid-soluble radioactivity at each time. Where indicated cell were treated during the chase with […] leupeptin (Sigma, #108975) and […] NH4Cl (to determine lysosomal degradation) or with 100 μm MRT 68921 dihydrochloride (Tocris, #5780) (to determine macroautophagy degradation).

[3] = tested on: neuroblastoma cell line N2a expressing the KFERQ-PS-Dendra reporter; assay: CMA activity, KFERQ-PS-Dendra reporter in N2a cells; assay type: cell-based, mouse; set-up: CMA activity, mean (Fig. S2a): unit not given here
Description: Cells were transduced with lentivirus carrying the KFERQ-PS-Dendra reporter as before. Cells were photoactivated by exposure to a 3.5 mA (current constant) light emitting diode (LED: Norlux, 405 nm) for 3 min and then plated in glass-bottom 96 well plates. At the desired times, cells were fixed with 4% PFA and imaged using high-content microscopy (Operetta system, Perkin Elmer). Images were quantified using the manufacturer’s software in a minimum of 1,200 cells in 9 independent fields per well. […] This was particularly important in the case of primary human cells where the efficiency of transduction was ~65%. To avoid confounding effects for drug-induced changes in cell volume or adherence to the plate that could bring a fraction of the cells per field outside of focus, we set a threshold to count only […] that have at least 1/10 of the average number of […] detected in the untreated wells for each cell type (3–4 puncta/cell in the case of NIH3T3 and N2a cells and 5 puncta/cell in primary human fibroblasts).

[4] = Fig. 2d (left), individual replicate values, one sample t test

CC(=O)Nc1ccc(C2=Nc3ccc(Cl)cc3OC2)cc1 [CA77]
AKT1 mRNA level [1, 4]: 1.86 and 1.18 and 1.20 and 0.75 and 0.97 and 1.87 and 1.39 | AKT2 mRNA level [1, 4]: 1.39 and 1.17 and 1.12 and 0.66 and 1.01 and 1.53 and 1.20 | CTSA mRNA level [1, 4]: 1.67 and 1.46 and 1.22 and 0.88 and 1.08 and 1.45 | EEF1A1 mRNA level [1, 4]: 1.15 and 1.98 and 1.39 and 1.19 and 1.55 | HSC70 mRNA level [1, 4]: 1.44 and 1.49 and 1.28 and 0.82 and 1.24 and 1.57 | HSP40 mRNA level [1, 4]: 0.73 and 0.99 and 0.82 and 0.53 and 0.77 and 1.06 | HSP90AA1 mRNA level [1, 4]: 1.50 and 0.94 and 0.92 and 0.76 and 0.78 and 0.87 and 0.90 | HSP90AB1 mRNA level [1, 4]: 1.21 and 0.89 and 0.79 and 0.62 and 0.81 and 0.82 and 0.83 | LAMP2A mRNA level [1, 4]: 1.32 and 1.55 and 1.43 and 1.87 and 2.34 and 2.75 and 2.33 | NCOR1 mRNA level [1, 4]: 2.35 and 1.24 and 0.55 and 0.97 and 2.06 and 1.85 | NFATC1 mRNA level [1, 4]: 2.10 and 1.29 and 1.23 and 0.50 and 0.73 and 1.05 and 1.18 | NFE2L2 mRNA level [1, 4]: 1.29 and 1.15 and 1.04 and 0.89 and 0.77 and 1.26 | PHLPP1 mRNA level [1, 4]: 2.13 and 1.55 and 1.38 and 2.29 and 1.20 and 1.48 and 1.51 | RAB11A mRNA level [1, 4]: 1.15 and 0.97 and 0.81 and 0.59 and 0.79 and 0.89 and 1.07 | RAC1 mRNA level [1, 4]: 0.89 and 1.51 and 1.36 and 1.27 and 1.10 and 1.63 and 1.34 | RARa mRNA level [1, 4]: 1.23 and 0.87 and 0.82 and 0.27 and 1.06 and 2.06 and 1.10 | RICTOR mRNA level [1, 4]: 0.96 and 1.28 and 0.65 and 0.74 and 1.53 and 1.63 | CMA activation score ([1]; Fig. 2d (right), individual replicate values): 0.1487 and -0.2323 and 0.1868 and 0.1591 | predicted CMA score compared to AR7 ([1]; NIH3T3, 20μM for 24 h): higher | Fig. 3a level, single animals 1-3 ([2]; IV, Time 0.083 h): 52.9 and 41.4 and 14.2 | Fig. 3b level, single animals 1-3 ([2]; IV, Time 0.083 h): 3773 and 2943 and 693 | predicted brain concentration ([2]; intraperitoneal 30 mg/kg bw, converted from Cmax or AUC (CA39: AUC and extended half-life)): 5 to 20 µM | duration of the increase in degradation of long-lived proteins (NIH3T3; NIH3T3, 10 μM): remained upregulated 24 h | Lysosomal proteolysis, Mean (Fig. S3c) (NIH3T3; Time 6): 3.76 | Lysosomal proteolysis, Mean (Fig. S3c) (NIH3T3; Time 12): 7.75 | CMA activity, mean relative to concentration 0 = 1 (Fig. S2b) ([3]; 12+12w, concentration 0.2): 0.9934 | CMA activity, mean relative to concentration 0 = 1 (Fig. S2b) ([3]; 12+12w, concentration 2): 0.9832 | CMA activity, mean relative to concentration 0 = 1 (Fig. S2b) ([3]; 12+12w, concentration 5): 2.103 | CMA activity, mean relative to concentration 0 = 1 (Fig. S2b) ([3]; 12+12w, concentration 10): 2.605 | CMA activity, mean relative to concentration 0 = 1 (Fig. S2b) ([3]; 12+12w, concentration 20): 4.196 | CMA activity, mean relative to concentration 0 = 1 (Fig. S2b) ([3]; 12+12w, concentration 30): 3.752 | CMA activity, mean (Fig. S2a) ([3]; 12h, concentration 0.02): 2.724 | CMA activity, mean (Fig. S2a) ([3]; 12h, concentration 0.2): 4.16 | CMA activity, mean relative to concentration 0 = 1 (Fig. S2b) ([3]; 12h, concentration 0.2): 0.9543 | CMA activity, mean (Fig. S2a) ([3]; 12h, concentration 2): 4.326 | CMA activity, mean relative to concentration 0 = 1 (Fig. S2b) ([3]; 12h, concentration 2): 0.9922 | CMA activity, mean (Fig. S2a) ([3]; 12h, concentration 5): 6.6688 | CMA activity, mean relative to concentration 0 = 1 (Fig. S2b) ([3]; 12h, concentration 5): 1.5297 | CMA activity, mean (Fig. S2a) ([3]; 12h, concentration 10): 9.952 | CMA activity, mean relative to concentration 0 = 1 (Fig. S2b) ([3]; 12h, concentration 10): 2.283 | CMA activity, mean (Fig. S2a) ([3]; 12h, concentration 20): 10.0764 | CMA activity, mean relative to concentration 0 = 1 (Fig. S2b) ([3]; 12h, concentration 20): 2.311 | CMA activity, mean (Fig. S2a) ([3]; 12h, concentration 30): 18.9972 | CMA activity, mean (Fig. S2a) ([3]; 12h, concentration 40): 10.5987 | CMA activity, mean (Fig. S2a) ([3]; 12h, concentration 50): 9.368 | CMA activity, mean (Fig. S2a) ([3]; 12h, concentration 60): 2.016 | CMA activity, mean (Fig. S2a) ([3]; 24h, concentration 0.02): 2.2722 | CMA activity, mean (Fig. S2a) ([3]; 24h, concentration 0.2): 4.676 | CMA activity, mean relative to concentration 0 = 1 (Fig. S2b) ([3]; 24h, concentration 0.2): 0.9787 | CMA activity, mean (Fig. S2a) ([3]; 24h, concentration 2): 4.697 | CMA activity, mean relative to concentration 0 = 1 (Fig. S2b) ([3]; 24h, concentration 2): 0.9831 | CMA activity, mean (Fig. S2a) ([3]; 24h, concentration 5): 13.5914 | CMA activity, mean relative to concentration 0 = 1 (Fig. S2b) ([3]; 24h, concentration 5): 2.845 | CMA activity, mean (Fig. S2a) ([3]; 24h, concentration 10): 13.8573 | CMA activity, mean relative to concentration 0 = 1 (Fig. S2b) ([3]; 24h, concentration 10): 2.901 | CMA activity, mean (Fig. S2a) ([3]; 24h, concentration 20): 21.7668 | CMA activity, mean relative to concentration 0 = 1 (Fig. S2b) ([3]; 24h, concentration 20): 4.556 | CMA activity, mean (Fig. S2a) ([3]; 24h, concentration 30): 18.5853 | CMA activity, mean relative to concentration 0 = 1 (Fig. S2b) ([3]; 24h, concentration 30): 3.89 | CMA activity, mean (Fig. S2a) ([3]; 24h, concentration 40): 10.9146 | CMA activity, mean (Fig. S2a) ([3]; 24h, concentration 50): 9.363 | CMA activity, mean (Fig. S2a) ([3]; 24h, concentration 60): 0.7571 | CMA activation in neuron-related mouse cells ([3]; in words): efficiently activated CMA

From PMC9304322, “Targeting retinoic acid receptor alpha-corepressor interaction activates chaperone-mediated autophagy and protects against retinal degeneration” (Nature Communications, 2022)
